From patent US11000033B2, “Ketone or oxime compound, and herbicide” (NISSAN CHEMICAL CORPORATION, priority 2014, dated 2021)

Legend:
Format in all cases: in vivo
soybean = assay: Test Example 5: effect on crop by foliage application, plastic box (symbol d); conditions: 320 g/ha, 3 weeks after application
Method in brief: (§1)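 Soil: sterilized diluvial. Container: plastic box, 21 × 13 cm, 7 cm deep. Sowing: spot-like, ~1.5 cm cover. Growth: greenhouse, 25° C. to 30° C.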

Veronica persica [1] = assay: Test Example 4: herbicidal effect by soil treatment (symbol R); conditions: application herbicide amount 320 g/ha
Method in brief: (§2)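 Seeds were sown in sterilized diluvial soil, covered with about 1.5 cm of soil, and the soil surface was sprayed with a water-diluted emulsion of the compound at a predetermined rate. Plants grew in a greenhouse at 25° C. to 30° C.; effects were scored visually 3 weeks after application.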

corn = assay: Test Example 4: effect on crop by soil treatment (symbol c); conditions: application herbicide amount 320 g/ha
Method in brief: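 Sterilized diluvial soil, spot sowing, ~1.5 cm soil cover; greenhouse 25–30° C.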

Scirpus juncoides = assay: Test Example 1: herbicidal activity, application before weed generation in submerged conditions (symbol B); conditions: application herbicide amount 320 g/ha
Method in brief: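 Application before weed emergence: an aqueous dilution of the emulsion formulation was poured onto the surface of 4 cm-deep floodwater on the day of sowing. Effect was judged after 3 weeks (greenhouse, 25–30 °C).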

Cyperus difformis = assay: Test Example 3: herbicidal effect by foliage application, Wagner pot (symbol E); conditions: application herbicide amount 320 g/ha
Method in brief: (§3)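 Herbicidal activity was rated three weeks after a foliar spray of diluted emulsion concentrate, applied at a predetermined dose to plants grown for 14 days from seed in waterlogged alluvial soil within a 25–30 °C greenhouse.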

beet = assay: Test Example 4: effect on crop by soil treatment (symbol f); conditions: application herbicide amount 320 g/ha
Method in brief: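 Plants are raised in a greenhouse (25° C. to 30° C.) from spot-sown seed, which sits under about 1.5 cm of sterilized diluvial soil in a box shared with weed species.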

wheat = assay: Test Example 5: effect on crop by foliage application, plastic box (symbol e); conditions: 320 g/ha, 3 weeks after application
Method in brief: as §1

Veronica persica [2] = assay: Test Example 5: herbicidal effect by foliage application, plastic box (symbol R); conditions: 320 g/ha, 3 weeks after application
Method in brief: (§4)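 Post-emergence spray; diluvial soil (sterilized), ~1.5 cm seed cover; greenhouse 25–30° C; 14-day-old plants; water-diluted emulsion at predetermined dose; visual score at 3 wk post-treatment.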

Leptochloa chinensis = assay: Test Example 3: herbicidal effect by foliage application, Wagner pot (symbol D); conditions: application herbicide amount 320 g/ha
Method in brief: as §3

Amaranthus retroflexus = assay: Test Example 4: herbicidal effect by soil treatment (symbol N); conditions: application herbicide amount 320 g/ha
Method in brief: as §2

[3] = test system: Echinochloa crus-galli var. crus-galli; assay: Test Example 4: herbicidal effect by soil treatment (symbol H); conditions: application herbicide amount 320 g/ha
Method in brief: as §2

Galium spurium = assay: Test Example 5: herbicidal effect by foliage application, plastic box (symbol Q); conditions: 320 g/ha, 3 weeks after application
Method in brief: as §4

transplanted rice plant = assay: Test Example 1: effect on crop, application before weed generation in submerged conditions (symbol a); conditions: application herbicide amount 320 g/ha
Method in brief: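 Rice at 2.5 leaf stage transplanted into submerged soil (4 cm depth) sown with three weed species; herbicide applied before weed emergence.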

Setaria viridis = assay: Test Example 5: herbicidal effect by foliage application, plastic box (symbol G); conditions: 320 g/ha, 3 weeks after application
Method in brief: as §4

Lolium multiflorum Lam. = assay: Test Example 4: herbicidal effect by soil treatment (symbol K); conditions: application herbicide amount 320 g/ha
Method in brief: as §2

## CON=C(C)CC1CC(OC)=C(c2c(C)cc(C)cc2C)C1=O (stereo not drawn) [1-001, 2-mesityl-3-methoxy-5-{2-(methoxyimino)propyl}cyclopent-2-enone]
soybean
  d: soybean, effect on crop grade: 0 (Herbicidal ratio of 5% or lower (almost no effect))
Veronica persica [1]
  R (Veronica persica) herbicidal effect grade: 0 (Herbicidal ratio of 5% or lower (almost no effect))
corn
  c (corn) effect on crop grade: 0 (Herbicidal ratio of 5% or lower (almost no effect))
Scirpus juncoides
  Herbicidal effect grade, B: Scirpus juncoides: 0 (Herbicidal ratio of 5% or lower (almost no effect))
Cyperus difformis
  herbicidal effect on E, grade 0-5: 0 (Herbicidal ratio of 5% or lower (almost no effect))
beet
  f (beet) effect on crop grade: 0 (Herbicidal ratio of 5% or lower (almost no effect))
wheat
  e: wheat, effect on crop grade: 0 (Herbicidal ratio of 5% or lower (almost no effect))
Veronica persica [2]
  R: Veronica persica, herbicidal effect grade: 0 (Herbicidal ratio of 5% or lower (almost no effect))
Leptochloa chinensis
  herbicidal effect on D (Leptochloa chinensis), grade 0-5: 0 (Herbicidal ratio of 5% or lower (almost no effect))
Amaranthus retroflexus
  N (Amaranthus retroflexus) herbicidal effect grade: 0 (Herbicidal ratio of 5% or lower (almost no effect))
[3]
  H (Echinochloa crus-galli var. crus-galli) herbicidal effect grade: 0 (Herbicidal ratio of 5% or lower (almost no effect))
Galium spurium
  Q: Galium spurium, herbicidal effect grade: 0 (Herbicidal ratio of 5% or lower (almost no effect))
Transplanted rice plant
  Effect grade on crop, a: transplanted rice plant: 0 (Herbicidal ratio of 5% or lower (almost no effect))
Setaria viridis
  G: Setaria viridis, herbicidal effect grade: 0 (Herbicidal ratio of 5% or lower (almost no effect))
Lolium multiflorum Lam.
  K (Lolium multiflorum Lam.) herbicidal effect grade: 0 (Herbicidal ratio of 5% or lower (almost no effect))

## CON=C(C)CC1CC(O)=C(c2c(C)cc(C)cc2C)C1=O (stereo not drawn) [1-002, 3-hydroxy-2-mesityl-5-{2-(methoxyimino)propyl}cyclopent-2-enone]
soybean
  d: soybean, effect on crop grade: 4 (Herbicidal ratio of 70% or higher and lower than 90%)
Veronica persica [1]
  R (Veronica persica) herbicidal effect grade: 5 (Herbicidal ratio of 90% or more (almost completely withered))
corn
  c (corn) effect on crop grade: 4 (Herbicidal ratio of 70% or higher and lower than 90%)
Scirpus juncoides
  Herbicidal effect grade, B: Scirpus juncoides: 4 (Herbicidal ratio of 70% or higher and lower than 90%)
Cyperus difformis
  herbicidal effect on E, grade 0-5: 5 (Herbicidal ratio of 90% or more (almost completely withered))
beet
  f (beet) effect on crop grade: 3 (Herbicidal ratio of 40% or higher and lower than 70%)
wheat
  e: wheat, effect on crop grade: 5 (Herbicidal ratio of 90% or more (almost completely withered))
Veronica persica [2]
  R: Veronica persica, herbicidal effect grade: 4 (Herbicidal ratio of 70% or higher and lower than 90%)
Leptochloa chinensis
  herbicidal effect on D (Leptochloa chinensis), grade 0-5: 5 (Herbicidal ratio of 90% or more (almost completely withered))
Amaranthus retroflexus
  N (Amaranthus retroflexus) herbicidal effect grade: 5 (Herbicidal ratio of 90% or more (almost completely withered))
[3]
  H (Echinochloa crus-galli var. crus-galli) herbicidal effect grade: 5 (Herbicidal ratio of 90% or more (almost completely withered))
Galium spurium
  Q: Galium spurium, herbicidal effect grade: 4 (Herbicidal ratio of 70% or higher and lower than 90%)
Transplanted rice plant
  Effect grade on crop, a: transplanted rice plant: 5 (Herbicidal ratio of 90% or more (almost completely withered))
Setaria viridis
  G: Setaria viridis, herbicidal effect grade: 5 (Herbicidal ratio of 90% or more (almost completely withered))
Lolium multiflorum Lam.
  K (Lolium multiflorum Lam.) herbicidal effect grade: 5 (Herbicidal ratio of 90% or more (almost completely withered))
